Reference: patent US8471024B2, “Tetrahydrofuropyridones” (priority 2008, dated 2013)

Target: T1, PHD2 (Homo sapiens, UniProt Q9GZT9)
T1 construct: FLAG-tagged full length PHD2expressed in and purified from baculovirus-infected Sf9 cells; FLAG; made in house; host or cells: baculovirus-infected Sf9 cells
Assay: Assay for HIF-PHD2 Catalytic Activity (time resolved fluorescence, VHL complex detection)
Assay type: biochemical
Details: FLAG-tagged full length PHD2; 0.2 μM 2-oxoglutarate, 0.5 μM HIF-1α peptide; read-out: PHD2 Binding Activity IC50
Protocol: Assay for HIF-PHD2Catalytic Activity To each well of a 96-well plate was added 1 μL of test compound in DMSO and 20 μl of assay buffer (50 mM Tris pH 7.4/0.01% Tween-20/0.1 mg/ml bovine serum albumin/10 μM ferrous sulfate/1mM sodium ascorbate/20 μg/ml catalase) containing 0.15 μg/ml FLAG-tagged full length PHD2expressed in and purified from baculovirus-infected Sf9 cells. After a 30 min preincubation at room temperature, the enzymatic reactions were initiated by the addition of 4 μL of substrates (final concentrations of 0.2 μM 2-oxoglutarate and 0.5 μM HIF-1α peptide biotinyl-DLDLEMLAPYJPMDDDFQL).

T1 sequence (Q9GZT9 whole entry): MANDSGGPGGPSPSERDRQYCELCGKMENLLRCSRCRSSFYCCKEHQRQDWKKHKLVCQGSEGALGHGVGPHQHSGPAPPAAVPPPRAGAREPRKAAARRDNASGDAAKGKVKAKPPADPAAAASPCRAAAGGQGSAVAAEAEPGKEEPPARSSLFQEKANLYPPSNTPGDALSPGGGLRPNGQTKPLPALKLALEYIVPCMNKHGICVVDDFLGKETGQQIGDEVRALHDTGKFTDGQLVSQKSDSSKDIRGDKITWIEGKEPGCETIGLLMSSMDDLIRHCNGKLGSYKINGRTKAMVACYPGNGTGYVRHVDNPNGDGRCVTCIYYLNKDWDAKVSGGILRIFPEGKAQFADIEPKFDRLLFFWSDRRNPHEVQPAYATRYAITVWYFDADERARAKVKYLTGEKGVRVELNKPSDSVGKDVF

SMILES | IC50 [nM]
O=C(O)CNC(=O)c1c(O)c2c(n(Cc3ccc(-c4ccccc4-n4cccn4)cc3)c1=O)COC2 [Example 32, N-[(4-hydroxy-2-oxo-1-{[2′-(1H-pyrazol-yl)biphenyl-4-yl]methyl}-1,2,5,7-tetrahydrofuro[3,4-b]pyridin-3-yl}carbonyl)glycine] | < 10
O=C(O)CNC(=O)c1c(O)c2c(n(Cc3nc(-c4ccc(Cl)cc4Cl)cs3)c1=O)COC2 [Example 26, N-[(1-{[4-(2,4-dichlorophenyl)-1,3-thiazol-2-yl]methyl)-4-hydroxy-2-oxo-1,2,5,7-tetrahydrofuro[3,4-b]pyridin-3-yl)carbonyl]glycine] | < 10
O=C(O)CNC(=O)c1c(O)c2c(n(Cc3ccc(-c4ccccc4C(F)(F)F)cc3)c1=O)COC2 [Example 33, N-[(4-hydroxy-2-oxo-1-{[2′-(trifluoromethyl)biphenyl-4-yl]methyl}-1,2,5,7-tetrahydrofuro[3,4-b]pyridin-3-yl}carbonyl)glycine] | < 10
O=C(O)CNC(=O)c1c(O)c2c(n(Cc3ccc(-c4ccc(F)cc4Cl)nc3)c1=O)COC2 [Example 50, N-[(1-{[6-(2-chloro-4-fluorophenyl)pyridin-3-yl]methyl}-4-hydroxy-2-oxo-1,2,5,7-tetrahydrofuro[3,4-b]pyridin-3-yl)carbonyl]glycine] | < 10
O=C(O)CNC(=O)c1c(O)c2c(n(Cc3ccc(OCC(F)(F)F)cc3)c1=O)COC2 [Example 24, N-({4-hydroxy-2-oxo-1-[4-(2,2,2-trifluoroethoxy)benzyl]-1,2,5,7-tetrahydrofuro[3,4-b]pyridin-3-yl}carbonyl)glycine] | < 10
O=C(O)CNC(=O)c1c(O)c2c(n(Cc3ccc(-c4ccccc4C(F)(F)F)nc3)c1=O)COC2 [Example 47, N-{[4-hydroxy-2-oxo-1-({6-[2-(trifluoromethyl)phenyl]pyridin-3-yl}methyl)-1,2,5,7-tetrahydrofuro[3,4-b]pyridin-3-yl]carbonyl}glycine] | < 10
O=C(O)CNC(=O)c1c(O)c2c(n(Cc3ccc(-c4ccccc4Cl)cc3)c1=O)COC2 [Example 28] | < 10
CCN(CC)C(=O)c1ccccc1-c1ccc(Cn2c3c(c(O)c(C(=O)NCC(=O)O)c2=O)COC3)c(F)c1 [Example 40] | < 10
O=C(O)CNC(=O)c1c(O)c2c(n(Cc3cnc(Cl)cn3)c1=O)COC2 [Example 12, N-({1-[(5-chloropyrazin-2-yl)methyl]-4-hydroxy-2-oxo-1,2,5,7-tetrahydrofuro[3,4-b]pyridin-3-yl}carbonyl)glycine] | < 10
COC(=O)c1ccccc1-c1ccc(Cn2c3c(c(O)c(C(=O)NCC(=O)O)c2=O)COC3)cc1 [Example 36, N-[(4-hydroxy-1-{[2′-(methoxycarbonyl)biphenyl-4-yl]methyl}-2-oxo-1,2,5,7-tetrahydrofuro[3,4,-b]pyridin-3-yl}carbonyl)glycine] | < 10
O=C(O)CNC(=O)c1c(O)c2c(n(Cc3ccc(-c4ccccc4Cl)nc3)c1=O)COC2 [Example 29] | < 10
O=C(O)CNC(=O)c1c(O)c2c(n(Cc3ccc(-c4ccc(Cl)cc4Cl)cc3)c1=O)COC2 [Example 35] | < 10
O=C(O)CNC(=O)c1c(O)c2c(n(Cc3ccc(-c4ccccc4OC(F)(F)F)nc3)c1=O)COC2 [Example 48, N-{[4-hydroxy-2-oxo-1-({6-[2-(trifluoromethoxy)phenyl]pyridin-3-yl}methyl)-1,2,5,7-tetrahydrofuro[3,4-b]pyridin-3-yl]carbonyl}glycine] | < 10
O=C(O)CNC(=O)c1c(O)c2c(n(Cc3ccc(-c4ccc(Cl)cc4)cc3)c1=O)COC2 [Example 30] | < 10
O=C(O)CNC(=O)c1c(O)c2c(n(Cc3ccn(-c4ccc(F)cc4)n3)c1=O)COC2 [Example 22] | < 10
O=C(O)CNC(=O)c1c(O)c2c(n(Cc3ccc(-c4ccc(F)cc4F)nc3)c1=O)COC2 [Example 44, N-[(1-{[6-(2,4-difluorophenyl)pyridin-3-yl]methyl}-4-hydroxy-2-oxo-1,2,5,7-tetrahydrofuro[3,4-b]pyridin-3-yl)carbonyl]glycine] | < 10
Cc1cnc(Cn2c3c(c(O)c(C(=O)NCC(=O)O)c2=O)COC3)cn1 [Example 7] | < 10
O=C(O)CNC(=O)c1c(O)c2c(n(Cc3ccc(-c4ccccc4OCC(F)(F)F)nc3)c1=O)COC2 [Example 46] | < 10
O=C(O)CNC(=O)c1c(O)c2c(n(Cc3ccc(-c4ccccc4OCC(F)(F)F)cc3)c1=O)COC2 [Example 34, N-[(4-hydroxy-1-{[2′-(2,2,2-trifluoroethoxy)biphenyl-4-yl]methyl}-2-oxo-1,2,5,7-tetrahydrofuro[3,4-b]pyridin-3-yl}carbonyl)glycine] | < 10
Cc1ccccc1-n1ccc(Cn2c3c(c(O)c(C(=O)NCC(=O)O)c2=O)COC3)n1 [Example 20, N-[(4-hydroxy-1-{[1-(2-methylphenyl)-1-H-pyrazol-3-yl]methyl}-2-oxo-1,2,5,7-tetrahydrofuro[3,4-b]pyridin-3-yl)carbonyl]glycine] | < 10
CC1OCc2c1c(O)c(C(=O)NCC(=O)O)c(=O)n2Cc1ccc(C(F)(F)F)cc1 (centres unmarked) [Example 13, N-({4-hydroxy-5-methyl-2-oxo-1-[4-(trifluoromethyl)benzyl]-1,2,5,7-tetrahydrofuro[3,4-b]pyridin-3-yl}carbonyl)glycine] | < 10
CC(C)Oc1ccc(Cn2c3c(c(O)c(C(=O)NCC(=O)O)c2=O)COC3)cc1 [Example 8, N-{[4-hydroxy-1-(4-isopropoxybenzyl)-2-oxo-1,2,5,7-tetrahydrofuro[3,4-b]pyridin-3-yl]carbonyl}glycine] | < 10
O=C(O)CNC(=O)c1c(O)c2c(n(Cc3ccc(-c4ccccc4Cl)cc3F)c1=O)COC2 [Example 38] | < 10
